The source of these data is patent publication US20030143165A1, “NSAID-containing topical formulations that demonstrate chemopreventive activity” (priority 2002, published 2003).

In one data set the test system is human skin cells. Put plainly: anti-proliferative effects of other NSAIDs on human skin cells. The note with it: range depends on duration of exposure, read-out: IC50 (concentration required to inhibit cell proliferation by 50%). Type of data set: cell-based. The text has this: FIG. 4 is a chart that graphically presents laboratory experiment test data regarding the relative effect of racemic flurbiprofen to its individual enantiomers, R-flurbiprofen flurbiprofen (“R-FB”) and S-flurbipofen (“S-FB”), on the in vitro proliferation of a cancerous human skin cell line. For the underlying experiment, the non-pigmented human skin cancer cell line MM96L was studied in vitro utilizing the MTS colorimetric assay to assess cell proliferation. DNA fragmentation assays, acridine orange staining and flow cytometry were also utilized to assess apoptosis and cell cycle effects. […] An important finding was that there was no difference between the enantiomers of flurbiprofen in their anti-proliferative potency, despite the fact that only the S-isomer was capable of reducing COX activity.
Further experiments similar to that discussed above with respect to FIG. 4 were conducted to assess the anti-proliferative effects of other NSAIDs on human skin cells. […] These values are similar to the IC50 vales encountered for flurbiprofen.

The next data set relates to cyclooxygenase (COX). The note with it: cited from earlier work.
The subject of data set [1] is non-pigmented human skin cancer cell line MM96L. Put plainly: in vitro proliferation (MTS colorimetric assay) and apoptosis of human skin cancer cell line. In kind it is cell-based. The note with it: for effect on proliferation rate (FIG. 4): 24 hours exposure, MTS assay; for apoptosis: DNA fragmentation, acridine orange staining, flow cytometry. From the text: FIG. 4 is a chart that graphically presents laboratory experiment test data regarding the relative effect of racemic flurbiprofen to its individual enantiomers, R-flurbiprofen flurbiprofen (“R-FB”) and S-flurbipofen (“S-FB”), on the in vitro proliferation of a cancerous human skin cell line. For the underlying experiment, the non-pigmented human skin cancer cell line M[…] was studied in vitro utilizing the MTS colorimetric assay to assess cell proliferation. DNA fragmentation assays, acridine orange staining and flow cytometry were also utilized to assess apoptosis and cell cycle effects. […] An important finding was that there was no difference between the enantiomers of flurbiprofen in their anti-proliferative potency, despite the fact that only the S-isomer was capable of reducing COX activity.
A general note: Tetrazolium dyes change colour on reduction, which living cells bring about.

Data set [2] concerns SKH-1 mice (hairless mice). Put plainly: UV light-induced skin carcinogenesis (papillomas/tumours) in hairless mice, topical treatment for 28 weeks. Type of data set: in vivo. The settings on record: for animals that had developed at least one tumour at the end of the study: week 28. How it is done:
In a first laboratory experiment performed, female SKH-1 mice (hairless mice) were purchased from the Animal Resource Service of Murdoch University, Western Australia, at approximately 3-4 weeks of age. Upon arrival at the Applicants' laboratory, the mice were housed in climate-controlled quarters (22±1° C. at 50% humidity) with a 12-hour light/dark cycle in yellow fluorescent lighting. All animals were allowed free access to rodent diet and water. The experimental protocol and all procedures were approved by CSIRO Health Sciences and Nutrition Animal Experimental Ethics Committee and followed the Australian Code of Practice for the care and use of animals for scientific purposes. The animals were observed daily during the period of UV light exposure. Individual body weights were determined twice weekly throughout the whole study period of 28 weeks.
Racemic flurbiprofen (“RS-FB”), used as the chemopreventive NSAID in this experiment, was purchased from Sigma Chemical Company (Sydney, Australia). Several topical formulation solutions were prepared by dissolving RS-FB in 70% ethanol (in water) as the carrier medium to achieve final RS-FB concentrations of 0.5, 1.0, 2.0 and 3.0% w/v. The drug solutions were prepared every two weeks throughout the whole study period.
The SKH-1 mice were divided into 5 treatment groups of 30 animals each. […] Within each treatment group, the animals were further divided into 2 subgroups of 15 animals. One subgroup was treated with vehicle or RS-FB solution one hour before the UV light exposure. The other subgroup was exposed to the UV light one hour before the application of vehicle or the allocated RS-FB solution. The solutions were applied topically to the dorsal area of the animals, in a volume of approximately 50-125 μl per application, using cotton tips.
Simulated solar irradiation was provided by an array of 6 UV-A tubes (Sylvania F40BL) symmetrically housed around a single UV-B tube (Philips FL 40SE) in a custom-built unit. As the skin of the animals progressively thickened, the time of exposure to reach 1 minimal erythematous dose (MED) was increased from 7 minutes per day to 10 minutes per day, 5 days a week. The integrated UV-B irradiance (280-320 nm) was 2.4×10^−4 W/cm^2, and the UV-A (320-400 nm) was 1.8×10^−3 W/cm^2 as measured with a model IL 1700 spectro-radiometer (International Light, Newburyport, Mass.). During treatment, the mice in each group were placed in separate open plastic cages in the UV housing unit. […] Treatment in this manner was continued for 28 weeks.
The development of skin cancer was assessed as the visible appearance of papillomas, which subsequently developed, in a subset of cases, to tumours. Weekly papilloma and tumour counts were performed after the appearance of the first papilloma and were continued until the termination of the experiment (week 28). The diameters of papillomas and tumours were measured and their locations noted. Data was recorded representing the number of (a) papillomas, (b) tumours and (c) papillomas plus tumours per animal. While the natural progression is from papilloma to tumour, it will be appreciated by those skilled in the art that, in some cases, the distinction between a papilloma and a tumour could not be made unequivocally. The data was analysed taking this into account. The appearance of the skin lesions was expressed progressively as incidence (percentage of mice bearing at least one papilloma/tumour) and yield (average number of papillomas/tumours per mouse) as well as burden (area of skin affected at the end of study).
Analysis of variance (ANOVA) was used to determine whether RS-FB administration caused a statistically significant change in the appearance and yield of papilloma/tumours in comparison with the control (vehicle group). Comparisons between groups was performed using the Scheffe method. Significance was concluded when P<0.05.

SMILES strings stand for the structures.

For the compound `CC(=O)Oc1ccccc1C(=O)O` [aspirin], in the data set with human skin cells, the IC50 was in the range of 970 to 5530 µM.
For `C[C@H](C(=O)O)c1ccc(-c2ccccc2)c(F)c1` [S-FB, S-flurbiprofen], the COX inhibitory activity entry with cyclooxygenase (COX) was “can inhibit cyclooxygenase”. In data set [1], the “difference between the enantiomers in anti-proliferative potency” value is reported as “no difference”, the “effect on proliferation rate (FIG. 4)” value is recorded as “inhibit the proliferation rate” and the apoptosis entry is “induce apoptosis”.
With `CC1=C(CC(=O)O)c2cc(F)ccc2/C1=C\c1ccc([S+](C)[O-])cc1` (stereo not shown) [sulindac], the IC50 with human skin cells was in the range of 1030 to 2160 µM.
For `CC(C(=O)O)c1ccc(-c2ccccc2)c(F)c1` (racemic) [racemic flurbiprofen, flurbiprofen], the “DP50 (time for 50% of mice within the group to develop at least one papilloma)” value in data set [2] (0.5% w/v topical in 70% ethanol, UV 5 days a week) is 17 weeks; in data set [2] (1% w/v topical in 70% ethanol, UV 5 days a week), 17 weeks; in data set [2] (2% w/v topical in 70% ethanol, UV 5 days a week), 17.5 weeks; in data set [2] (3-2% w/v topical (3%, then 2% from week 10)), 18.5 weeks. Also, the “animals that had developed at least one tumour at the end of the study” value was 45% in data set [2] (0.5% w/v topical), 25% in data set [2] (1.0% w/v topical), 25% in data set [2] (2.0% w/v topical) and 10% in data set [2] (3-2% w/v topical). For the same compound, the “skin appearance at completion of week 28 (FIG. 3c, 3d) vs vehicle animal” value in data set [2] (1% and 2% treatment groups, representative animals) is “reduction in tumours and ulcers”. In addition, in data set [2] (3% w/v topical, initial treatment (until week 10)), the “adverse effects in the animals” value is “adverse effects (such as lethargy, dehydration, and diarrhoea)”. In addition, the “adverse effects / pathology in the animals” value in data set [2] (all concentrations up to and including 2% topical, 28 weeks) was “no signs of adverse effects”. The “papilloma/tumour yield (average number per animal) vs control over time (FIG. 1)” value in data set [2] (all treatment groups 0.5-3-2% w/v, ANOVA/Scheffe) is “statistically significant from week 13”. Besides, the “reduction in the number of animals that developed skin tumours compared with control group” value in data set [2] (highest concentration (3-2% w/v) vs vehicle control) was “greater than 80%”. Also, the “protection against photo-carcinogenesis, application one hour before vs one hour after UV light” value in data set [2] (papilloma/tumour incidence compared between the two subgroups) was “superior protection”. In addition, the “effect on proliferation rate (FIG. 4)” value in data set [1] was “inhibit the proliferation rate”. In addition, the apoptosis entry in data set [1] is on record as “induce apoptosis”.
With `CC(C)Cc1ccc([C@@H](C)C(=O)O)cc1` [R-ibuprofen], the IC50 in the data set on human skin cells was 1490 µM.
Turning to `CC(C)Cc1ccc([C@H](C)C(=O)O)cc1` [S-ibuprofen], the IC50 in the data set on human skin cells is 1500 µM.
For the compound `C[C@@H](C(=O)O)c1ccc(-c2ccccc2)c(F)c1` [R-FB, R-flurbiprofen], in the data set on cyclooxygenase (COX), the COX inhibitory activity entry was “low COX inhibition”. In data set [1], the “difference between the enantiomers in anti-proliferative potency” value is reported as “no difference”, the “effect on proliferation rate (FIG. 4)” value is listed as “inhibit the proliferation rate” and the apoptosis result is listed as “induce apoptosis”.
